Results as given in ChEMBL document CHEMBL5325453, “Isolation and identification of the new baicalin target protein to develop flavonoid structure-based therapeutic agents” (Bioorg Med Chem, 2023).

What was measured:
[1] = target: T1, Glyceraldehyde-3-phosphate dehydrogenase (Homo sapiens, UniProt P04406); experiment: Binding affinity to human recombinant GAPDH incubated for 30 mins by fluorescence quenching assay; settings: dose <= 50.0 µM
Target sequence in this assay (P04406 2-335 limits assumed): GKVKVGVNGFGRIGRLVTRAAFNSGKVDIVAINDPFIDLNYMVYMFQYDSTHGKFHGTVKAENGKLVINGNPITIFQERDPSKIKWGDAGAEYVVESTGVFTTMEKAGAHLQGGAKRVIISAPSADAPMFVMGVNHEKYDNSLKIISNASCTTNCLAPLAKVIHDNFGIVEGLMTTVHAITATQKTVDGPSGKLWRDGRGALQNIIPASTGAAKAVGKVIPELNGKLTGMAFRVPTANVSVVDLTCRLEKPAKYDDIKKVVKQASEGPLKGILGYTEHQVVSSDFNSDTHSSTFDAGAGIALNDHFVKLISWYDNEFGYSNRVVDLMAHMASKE

[2] = target: T1, Glyceraldehyde-3-phosphate dehydrogenase; experiment: Binding affinity to human recombinant GAPDH assessed as Stem-Volmer quenching constant at 298 K incubated for 30 mins by fluorescence quenching assay
Target sequence in this assay (P04406 2-335 limits assumed): as above

[3] = target: T1, Glyceraldehyde-3-phosphate dehydrogenase; experiment: Binding affinity to human recombinant GAPDH assessed as Stem-Volmer quenching constant at 310 K incubated for 30 mins by fluorescence quenching assay
Target sequence in this assay (P04406 2-335 limits assumed): as above

[4] = target: T1, Glyceraldehyde-3-phosphate dehydrogenase; experiment: Binding affinity to human recombinant GAPDH assessed as equilibrium binding constant at 298 K incubated for 30 mins by fluorescence quenching assay
Target sequence in this assay (P04406 2-335 limits assumed): as above

[5] = target: T1, Glyceraldehyde-3-phosphate dehydrogenase; experiment: Binding affinity to human recombinant GAPDH assessed as equilibrium binding constant at 310 K incubated for 30 mins by fluorescence quenching assay
Target sequence in this assay (P04406 2-335 limits assumed): as above

[6] = target: T1, Glyceraldehyde-3-phosphate dehydrogenase; experiment: Binding affinity to human recombinant GAPDH assessed as change in enthalpy at 298 K incubated for 30 mins by fluorescence quenching assay
Target sequence in this assay (P04406 2-335 limits assumed): as above

[7] = target: T1, Glyceraldehyde-3-phosphate dehydrogenase; experiment: Binding affinity to human recombinant GAPDH assessed as change in entropy at 298 K incubated for 30 mins by fluorescence quenching assay
[8] = target: T1, Glyceraldehyde-3-phosphate dehydrogenase; experiment: Binding affinity to human recombinant GAPDH assessed as change in gibbs free energy at 298 K incubated for 30 mins by fluorescence quenching assay
[9] = target: T1, Glyceraldehyde-3-phosphate dehydrogenase; experiment: Binding affinity to human recombinant GAPDH assessed as change in gibbs free energy at 310 K incubated for 30 mins by fluorescence quenching assay
[10] = target: T1, Glyceraldehyde-3-phosphate dehydrogenase; experiment: Inhibition of human recombinant GADPH incubated for 30 mins by absorbance based assay
Target sequence in this assay (P04406 whole entry): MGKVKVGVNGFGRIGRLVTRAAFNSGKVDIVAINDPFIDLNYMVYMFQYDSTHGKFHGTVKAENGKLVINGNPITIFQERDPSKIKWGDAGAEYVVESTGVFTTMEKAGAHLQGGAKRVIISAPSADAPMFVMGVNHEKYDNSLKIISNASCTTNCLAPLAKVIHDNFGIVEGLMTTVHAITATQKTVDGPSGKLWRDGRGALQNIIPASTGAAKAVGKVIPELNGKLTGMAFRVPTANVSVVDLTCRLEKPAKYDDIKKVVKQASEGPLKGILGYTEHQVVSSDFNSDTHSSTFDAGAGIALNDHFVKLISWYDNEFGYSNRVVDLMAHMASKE

Activity [1] | KSV [2] | KSV [3] | Kb [4] | Kb [5] | deltaH [6] | deltaS [7] | deltaG [8] | deltaG [9] | IC50 [10] | Structure (SMILES)
Dose-Dependent Effect | 26.7 µM⁻¹ | 26.3 µM⁻¹ | 427 M⁻¹ | 341 M⁻¹ | -14.3 kJ/mol | 2.38 J/mol/K | -15 kJ/mol | -15 kJ/mol | 43.9 µM | O=c1cc(-c2ccccc2)oc2cc(O)c(O)c(O)c12 [BAICALEIN]
Dose-Dependent Effect | 27.3 µM⁻¹ | 17.4 µM⁻¹ | 2270 M⁻¹ | 634 M⁻¹ | -81.7 kJ/mol | -210 J/mol/K | -19.1 kJ/mol | -16.6 kJ/mol | 40.9 µM | O=C(O)[C@H]1O[C@@H](Oc2cc3oc(-c4ccccc4)cc(=O)c3c(O)c2O)[C@H](O)[C@@H](O)[C@@H]1O [BAICALIN]
